# In US4933347A, “Diamidines and bis(imidazolines) for the treatment of and prophylaxis against pneumocystis carinii pneumonia” (University of North Carolina at Chapel Hill, priority 1988, dated 1990):
# “Also recorded” adds a separate entry of the source.
# Tested on: Pneumocystis carinii
# Experiment: Treatment of Pneumocystis carinii pneumonia in Sprague-Dawley rats (extent of disease by histologic score)
# Format: in vivo, male Sprague-Dawley rats
# Conditions: for Extent of Disease by Histologic Score: number of animals with score 0.5 / Extent of disease by histologic score (combined): number of animals in scoring group 0.5: 0.5 = <10 cysts found per 2 sections; for Extent of Disease by Histologic Score: number of animals with score 1 / Extent of disease by histologic score (combined): number of animals in scoring group 1: 1 = scattered cysts, <5% of lung involved; for Extent of Disease by Histologic Score: number of animals with score 2 / Extent of disease by histologic score (combined): number of animals in scoring group 2: 2 = scattered cysts; for Extent of Disease by Histologic Score: number of animals with score 2: 5-10% lung involved or small foci of infection; for Extent of Disease by Histologic Score: number of animals with score 3 / Extent of disease by histologic score (combined): number of animals in scoring group 3: 3 = scattered cysts; for Extent of disease by histologic score (combined): number of animals in scoring group 0.5 / Extent of disease by histologic score (combined): number of animals in scoring group 1 / Extent of disease by histologic score (combined): number of animals in scoring group 2 / Extent of disease by histologic score (combined): number of animals in scoring group 3 / Extent of disease by histologic score (combined): number of animals in scoring group 4: Table XII composite, 10 mg/kg; for Extent of disease by histologic score (combined): number of animals in scoring group 2: 5-10% of lung involved
# Method: Induction and Treatment Of Pneumocystis Carinii in Sprague-Dawley Rats
# Male Sprague-Dawley rats, barrier raised, non-certified virus free, weighing 150-200g were obtained from Hilltop Laboratories and housed individually. Animals were begun on a low (8%) protein diet (ICN Biomedicals, Cincinnati, OH) and drinking water containing tetracycline (0.5 mg/ml) and dexamethasone (1.0 μg/ml) immediately upon arrival. This treatment was given for the next 8 weeks, monitoring fluid intake daily and weighing animals weekly. Dilutions of the drinking solution were made when animals consumed too much fluid so as to prevent cortisone poisoning. At the beginning of the sixth week, animals were divided into groups of 8 animals each and the test compounds were administered daily by i.v. injection at a dose of 10 mg/kg, unless otherwise noted, for the next 14 days.
# Animals were sacrificed at the end of the eighth week by chloroform inhalation and the left lung was removed aseptically and placed in sterile Hank's balanced salts solution without calcium or magnesium (HBSS-) for the ground tissue procedure. The right lung was inflated in situ with 10% […] and removed for histologic examination GMS staining. […]
# [1] = 10 mg/kg i.v. daily, 14 days, 10-50% of lung involved with some intense areas of infection
# [2] = 10 mg/kg i.v. daily, 14 days, 4 = >50% of lung involved with many intense areas of focal infection
# [3] = 10 mg/kg unless otherwise noted
Compound,"Extent of Disease by Histologic Score: number of animals with score 0.5 (10 mg/kg i.v. daily, 14 days) [animals]","Extent of Disease by Histologic Score: number of animals with score 1 (10 mg/kg i.v. daily, 14 days) [animals]","Extent of Disease by Histologic Score: number of animals with score 2 (10 mg/kg i.v. daily, 14 days) [animals]",Extent of Disease by Histologic Score: number of animals with score 3 [1] [animals],Extent of Disease by Histologic Score: number of animals with score 4 [2] [animals],Efficacy in treating PCP compared with control [3],Efficacy in treating PCP compared with pentamidine [3],Extent of disease by histologic score (combined): number of animals in scoring group 0.5 [animals],Extent of disease by histologic score (combined): number of animals in scoring group 1 [animals],Extent of disease by histologic score (combined): number of animals in scoring group 2 [animals],Extent of disease by histologic score (combined): number of animals in scoring group 3 (10-50% of lung involved) [animals],Extent of disease by histologic score (combined): number of animals in scoring group 4 (4 = >50% of lung involved) [animals],other results
N=C(N)c1ccc(OCCOc2ccc(C(=N)N)cc2N)c(N)c1 [Example 3],4,4,0,0,0,significantly better than the control,approximately comparable to pentamidine in efficacy,4,4,0,0,0,
N=C(N)c1ccc(OCCCOc2ccc(C(=N)N)cc2)cc1 [Example 4],3,4,1,0,0,,better at controlling the extent of the pcp infection than either para- or meta- pentamidine,3,4,1,0,0,
N=C(N)c1ccc(OCCCOc2ccc(C(=N)N)cc2N)c(N)c1 [Example 5],2,4,1,0,0,significantly better than the control,approximately comparable to pentamidine in efficacy,2,4,1,0,0,
N=C(N)c1ccc(NCCCNc2ccc(C(=N)N)cc2)cc1 [Example 7],5,1,2,0,0,,better than or equal to pentamidine,5,1,2,0,0,Efficacy in treating PCP compared with related compounds of the series (effect of chain length or substituent): most effective
"N=C(N)c1ccc(OCCCCOc2ccc(C(=N)N)cc2)cc1 [Example 9, butamidine]",,,0,0,0,,significantly better than pentamidine in controlling pcp; also recorded: significantly better than pentamidine at the 10 mg/kg dosage level,8,0,0,0,0,"Extent of Disease by Histologic Score: number of animals with score 0.5 (0.1 mg/kg): 0 animals; Extent of Disease by Histologic Score: number of animals with score 1 (0.1 mg/kg): 0 animals; Extent of Disease by Histologic Score: number of animals with score 2 (0.1 mg/kg): 4 animals; Extent of Disease by Histologic Score: number of animals with score 3 (0.1 mg/kg, 10-50% of lung involved): 5 animals; Extent of Disease by Histologic Score: number of animals with score 4 (0.1 mg/kg, 4 = >50% of lung involved): 2 animals; Efficacy in treating PCP compared with pentamidine (1 mg/kg or 0.1 mg/kg): essentially no difference in the two compounds; Extent of Disease by Histologic Score: number of animals with score 0.5 (1 mg/kg): 0 animals; Extent of Disease by Histologic Score: number of animals with score 1 (1 mg/kg): 1 animals; Extent of Disease by Histologic Score: number of animals with score 2 (1 mg/kg): 3 animals; Extent of Disease by Histologic Score: number of animals with score 3 (1 mg/kg, 10-50% of lung involved): 5 animals; Extent of Disease by Histologic Score: number of animals with score 4 (1 mg/kg, 4 = >50% of lung involved): 3 animals"
N=C(N)c1ccc(OCCCCOc2ccc(C(=N)N)cc2N)c(N)c1 [Example 10],2,5,1,0,0,significantly better than the control,approximately comparable to pentamidine in efficacy,2,5,1,0,0,
N=C(N)c1ccc(OCCCCCOc2ccc(C(=N)N)cc2N)c(N)c1 [Example 14],,,,,0,significantly better than the control,improved performance in treating pcp; also recorded: approximately comparable to pentamidine in efficacy,8,5,1,1,0,
